Experimental data taken from patent publication USRE37781E1, “Substituted cyclic carbonyls and derivatives thereof useful as retroviral protease inhibitors” (DuPont Pharmaceuticals Company, priority 1991, dated 2002).
Read-outs that look alike come from different tables or passages of the source.

Assays:
[1] = target: single-chain tethered dimer of HIV protease (Human immunodeficiency virus 1, UniProt P04585); test: biochemical; type: biochemical; design: fused on or other part: A second copy of the same protease unit is joined to the first by a short peptide tether, giving one polypeptide
HIV-1 (RF) in MT-2 cells = test: microbe, parasite or virus in culture; type: cell-based
Summary of the method: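 HIV-1 laboratory strains (RF, MN, IIIB) grown in H9 cells in RPMI 1640 with 5% FCS; infections in MT-2 cells. Viral RNA quantified by hybridization with biotinylated gag/pol capture probes on streptavidin plates and alkaline phosphatase-conjugated reporter probes; BH10 gag-pol in vitro transcripts serve as RNA standards.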

[2] = Table 2d, HIV protease inhibition, HPLC method, read-out: HPLC K1
[3] = HIV protease inhibition, HPLC method, Table 2d, read-out: HPLC K1
[4] = HIV RNA assay, HIV-1 infected MT-2 cells, Table 2d
[5] = read-out: HPLC K1, Table 2d, HIV protease inhibition, HPLC method
[6] = Human immunodeficiency virus 1, MT2, 48 h, Table 2d, HIV RNA assay, read-out: IC90
[7] = read-out: HPLC K1, Table 2d, class symbols
[8] = Human immunodeficiency virus 1, MT2, 48 h, Table 2d, class symbols, read-out: IC90

`CCNc1n[nH]c2ccc(CN3C(=O)N(Cc4ccc5[nH]nc(NCC)c5c4)C(Cc4ccccc4)C(O)C(O)C3Cc3ccccc3)cc12` (centres unmarked) [15DJ] was tested, and the Ki [1, 2] was under 10 nM and the IC90 (HIV-1 (RF) in MT-2 cells; Table 2d, HIV RNA assay) was “+++ (+++=<10 μg/mL)”.

`CN(C)CCCCN1C(=O)N(CCCCN(C)C)C(Cc2ccccc2)C(O)C(O)C1Cc1ccccc1.Cl.Cl` (centres unmarked) [15FH] was tested, and the Ki [1, 3] was 10 to 1000 nM and the IC90 (HIV-1 (RF) in MT-2 cells; [4]) was “++/+ (The ++/+ is used in the cases where an IC90 was determined to be >50 μg/mL)”.

In the case of `O=C1Cc2cc(CN3C(=O)N(Cc4ccc5c(c4)CC(=O)N5)C(Cc4ccccc4)C(O)C(O)C3Cc3ccccc3)ccc2N1` (centres unmarked) [15DD], the Ki [1, 2] is reported as under 10 nM and the IC90 (HIV-1 (RF) in MT-2 cells; Table 2d, HIV RNA assay) is reported as “+++ (+++=<10 μg/mL)”.

In the case of `O=C(c1cccc(CN2C(=O)N(Cc3cccc(C(=O)c4ncc[nH]4)c3)C(Cc3ccccc3)C(O)C(O)C2Cc2ccccc2)c1)c1ncc[nH]1` (centres unmarked) [Example 15XJ], the Ki [1, 5] is reported as under 10 nM and the IC90 (HIV-1 (RF) in MT-2 cells; [6]) is reported as under 10 µg/mL.

With `Cl.O=C(OCc1ccc(CN2C(=O)N(Cc3ccc(COC(=O)c4cccc(CN5CCOCC5)c4)cc3)[C@H](Cc3ccccc3)[C@H](O)[C@@H](O)[C@H]2Cc2ccccc2)cc1)c1cccc(CN2CCOCC2)c1` [29S] the Ki ([1]; Table 2s, read-out: Ki (HPLC)) was over 1000 nM and the IC90 (HIV-1 (RF) in MT-2 cells; Table 2s) was “+++ (+++=<10 μg/mL)”.

`N#Cc1cccc(CN2C(=S)N(Cc3cccc(C#N)c3)C(Cc3ccccc3)C(O)C(O)C2Cc2ccccc2)c1` (centres unmarked) [Example 27K] was tested, and the Ki ([1]; Table 2q, read-out: HPLC Ki) was under 10 nM and the IC90 (HIV-1 (RF) in MT-2 cells; Table 2q) was “+++ (+++=<10 μg/mL)”.

For `COC(=O)c1cccc(CN2C(Cc3ccc(F)cc3)C(O)C(O)C(Cc3ccc(F)cc3)N(Cc3cccc(C(=O)OC)c3)S2(=O)=O)c1` (centres unmarked) [31A], the Ki ([1]; Table 2u (second printing), HPLC method, read-out: K1 (HPLC)) was 10 to 1000 nM, the Ki ([1]; Table 2u, HPLC method, read-out: K1 (HPLC)) was 10 to 1000 nM and the IC90 (HIV-1 (RF) in MT-2 cells; Table 2u) was “+++ (+++=<10 μg/mL)”. The IC90 (HIV-1 (RF) in MT-2 cells; Table 2u (second printing)) was “+++ (+++=<10 μg/mL)”.

`O=C1N(Cc2cccc(I)c2)C(Cc2ccccc2)C(O)C(O)C(Cc2ccccc2)N1Cc1cccc(I)c1` (centres unmarked) [Example 12J] showed a Ki [1, 7] of under 10 nM and an IC90 (HIV-1 (RF) in MT-2 cells; [8]) of under 10 µg/mL.

`CC(CCCCN1C(=O)N(CCCCC(C)=NO)C(Cc2ccccc2)C(O)C(O)C1Cc1ccccc1)=NO` (centres unmarked) [Example 15WC] gave a Ki [1, 7] of 10 to 1000 nM and an IC90 (HIV-1 (RF) in MT-2 cells; [8]) of under 10 µg/mL.

For `O=C1NC(Cc2ccccc2)C(O)C(O)C(Cc2ccccc2)N1Cc1cccc(O)c1` (centres unmarked) [10I], the Ki [1, 7] was under 10 nM and the IC90 (HIV-1 (RF) in MT-2 cells; [8]) was under 10 µg/mL.

In the case of `CCN(CC)C(=O)c1cccc(CN2C(=O)N(Cc3cccc(C(=O)OC)c3)C(Cc3ccccc3)C(O)C(O)C2Cc2ccccc2)c1` (centres unmarked) [11T], the Ki [1, 7] is reported as under 10 nM and the IC90 (HIV-1 (RF) in MT-2 cells; [8]) is reported as under 10 µg/mL.

`N#Cc1cccc(CN2C(Cc3ccccc3)C(O)C(O)C(Cc3ccccc3)N(Cc3cccc(C#N)c3)S2(=O)=O)c1` (centres unmarked) [23Y] was tested, and the Ki ([1]; Table 2m, read-out: HPLC Ki) was 10 to 1000 nM and the IC90 (HIV-1 (RF) in MT-2 cells; Table 2m) was “+++ (+++=<10 μg/mL)”.

For `O=C1N(Cc2ccc(O)cc2)C(Cc2ccccc2)C(O)C(O)C(Cc2ccccc2)N1Cc1cccc(-c2cc[nH]n2)c1` (centres unmarked) [15CA], the Ki [1, 5] was under 10 nM and the IC90 (HIV-1 (RF) in MT-2 cells; [6]) was under 10 µg/mL.

Work on `CSCCCCCN1C(=O)N(CCCCCO)C(Cc2ccccc2)C(O)C(O)C1Cc1ccccc1` (centres unmarked) [Example 15VJ] yielded a Ki [1, 7] of 10 to 1000 nM and an IC90 (HIV-1 (RF) in MT-2 cells; [8]) of under 10 µg/mL.

`CNCC(=O)NCCCCCN1C(=O)N(CCCCCNC(=O)CNC)C(Cc2ccccc2)C(O)C(O)C1Cc1ccccc1.Cl.Cl` (centres unmarked) [15EZ] was tested, and the Ki [1, 3] was 10 to 1000 nM and the IC90 (HIV-1 (RF) in MT-2 cells; [4]) was “++/+ (The ++/+ is used in the cases where an IC90 was determined to be >50 μg/mL)”.

`CC(O)c1cccc(CN2C(=O)N(Cc3cccc(C(C)O)c3)C(Cc3ccccc3)C(O)C(O)C2Cc2ccccc2)c1` (centres unmarked) [15XD] showed a Ki [1, 5] of under 10 nM and an IC90 (HIV-1 (RF) in MT-2 cells; [6]) of under 10 µg/mL.

Work on `O=C1N(Cc2cccc(OCc3ccccc3)c2)C(Cc2ccccc2)C(O)C(O)C(Cc2ccccc2)N1Cc1cccc([N+](=O)[O-])c1` (centres unmarked) [11P] yielded a Ki [1, 7] of under 10 nM and an IC90 (HIV-1 (RF) in MT-2 cells; [8]) of under 10 µg/mL.

With `O=S1(=O)N(Cc2ccc(OCc3ccccc3)cc2)C(Cc2ccccc2)C(O)C(O)C(Cc2ccccc2)N1Cc1ccc(OCc2ccccc2)cc1` (centres unmarked) [23J] the Ki ([1]; Table 2m, read-out: HPLC Ki) was over 1000 nM and the IC90 (HIV-1 (RF) in MT-2 cells; Table 2m) was “++ (++=10 to 100 μg/mL)”.

Compound `O=C1N(CCCCCO)C(Cc2ccccc2)C(O)C(O)C(Cc2ccccc2)N1Cc1ccc(CO)cc1` (centres unmarked) [Example 15VK] has a Ki [1, 7] of under 10 nM and an IC90 (HIV-1 (RF) in MT-2 cells; [8]) of under 10 µg/mL.

`O=C1N(CC2CC2)C(Cc2ccccc2)C(O)C(O)C(Cc2ccccc2)N1CC1CC1` (centres unmarked) [Example 13o] was tested, and the Ki ([1]; Table 2d, class symbols, read-out: HPLC K1) was over 1000 nM and the IC90 (HIV-1 (RF) in MT-2 cells; Table 2d, class symbols) was “++ (++=10 to 100 μg/mL)”.

`CCC(O)CN1C(=O)NC(Cc2ccccc2)C(O)C(O)C1Cc1ccccc1` (centres unmarked) [Example 15VL] showed a Ki [1, 7] of over 1000 nM and an IC90 (HIV-1 (RF) in MT-2 cells; [8]) of over 50 µg/mL.

`CCN1C(Cc2ccccc2)C(O)C(O)C(Cc2ccccc2)N(CC)S1(=O)=O` (centres unmarked) [23W] was tested, and the Ki ([1]; Table 2m, read-out: HPLC Ki) was 10 to 1000 nM and the IC90 (HIV-1 (RF) in MT-2 cells; Table 2m) was “++ (++=10 to 100 μg/mL)”.

With `O=C1N(Cc2ccc(CO)cc2)C(Cc2ccc(F)c(F)c2)C(O)C(O)C(Cc2ccc(F)c(F)c2)N1Cc1ccc(CO)cc1` (centres unmarked) [20AB] the Ki ([1]; Table 2i, read-out: HPLC Ki) was under 10 nM and the IC90 (HIV-1 (RF) in MT-2 cells; Table 2i) was “+++ (+++=<10 μg/mL)”.

Work on `CC(O)CCCCN1C(=O)N(CCCCC(C)O)C(Cc2ccccc2)C(O)C(O)C1Cc1ccccc1` (centres unmarked) [Example 15VZ] yielded a Ki [1, 7] of under 10 nM and an IC90 (HIV-1 (RF) in MT-2 cells; [8]) of under 10 µg/mL.
